Here are results for 6 compounds from patent publication US9006173B2, “Microcystins as agents for treatment of cancer” (priority 2006, dated 2015).

The subject of data set [1] is OATP1B3-transfected HeLa cells.
The subject of data set [2] is pIRESneo2 (control plasmid) transfected HeLa cells. Kind of data set: cells. The class given is cell-based.
In data set [3] the test system is total phosphatase activity in OATP1B3-transfected HeLa cells. The class given is cell-based.
Details of data set [4]: species or system athymic nude mice. Particulars: mouse, in vivo, ip.
For data set [5], the system named is HeLa cells transfected with pIRESneo2. The class given is cell-based.
The test system of data set [6] is pIRESneo2 transfected HeLa cells. The class given is cell-based.
The next data set addresses PP1 (Homo sapiens, UniProt P62136). Particulars: read-out: Reported Ki PP1; cited from earlier work.
For data set [7] the following is noted: mouse, in vivo; cited from earlier work.
For data set [8], the system named is OATP1B1-expressing HeLa xenografts. Also noted: species or system athymic nude mice. Particulars: mouse, in vivo, ip.
Data set [9] has as its system OATP1B1 transfected HeLa cells. The class given is cell-based.
Data set [10] concerns OATP1B1-transfected HeLa cells.
A further data set deals with PP2A (Homo sapiens, UniProt P67775). The settings on record: cited from earlier work.
Chain of PP2A (P67775 whole entry): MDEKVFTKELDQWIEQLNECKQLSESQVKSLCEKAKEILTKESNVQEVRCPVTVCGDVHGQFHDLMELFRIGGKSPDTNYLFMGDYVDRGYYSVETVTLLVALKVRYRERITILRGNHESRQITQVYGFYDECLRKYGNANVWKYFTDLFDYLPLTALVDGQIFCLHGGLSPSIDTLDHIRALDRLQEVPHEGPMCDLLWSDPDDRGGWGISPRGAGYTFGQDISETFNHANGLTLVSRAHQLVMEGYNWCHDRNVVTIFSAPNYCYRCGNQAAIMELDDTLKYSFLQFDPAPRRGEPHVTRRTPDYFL
For data set [11], the system named is total phosphatase activity in OATP1B1-transfected HeLa cells. The format is cell-based.
Another data set concerns OATP1B1. Kind of data set: in vitro. The settings on record: human.
The next data set relates to OATP1B3. As to the kind of experiment: in vitro. Particulars: human.
The next data set deals with purified PP1 (Oryctolagus cuniculus, UniProt P62139). As to the kind of experiment: biochemical.
Chain of purified PP1 (P62139 whole entry): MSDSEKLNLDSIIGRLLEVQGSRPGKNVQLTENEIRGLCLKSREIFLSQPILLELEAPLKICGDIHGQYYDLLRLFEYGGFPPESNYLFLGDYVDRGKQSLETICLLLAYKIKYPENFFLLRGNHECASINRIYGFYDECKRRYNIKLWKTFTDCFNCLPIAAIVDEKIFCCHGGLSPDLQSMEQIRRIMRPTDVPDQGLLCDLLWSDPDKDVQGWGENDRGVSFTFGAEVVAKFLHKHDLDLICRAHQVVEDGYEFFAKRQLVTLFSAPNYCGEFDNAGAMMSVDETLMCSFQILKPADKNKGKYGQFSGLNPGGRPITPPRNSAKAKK
The next data set addresses T1, purified PP2A (Homo sapiens, UniProt P67775).
T1 construct: purchased Upstate Cell Signaling Solutions, NY
As to the kind of experiment: biochemical. Particulars: [33P]-MyBP substrate, 10 min pre-incubation, mean±SD; read-out: Enzyme Inhibition PP2A IC50.

[12] abbreviates: read-out: Growth Inhibition OATP1B3 IC50.
The mark [13] stands for this setting: read-out: Growth Inhibition pIRESneo2 IC50.
Where [14] appears, read: read-out: Growth inhibition: toxicity not reached / no cytotoxicity up to stated concentration in control cells.
[15] abbreviates: read-out: Growth Inhibition OATP1B1 IC50.

Where two headings read alike, the source gives them in different places. Numbered stars: 1 amine (or outer) side, 2 acyl side, 3 side chain; on linkers, the order of the positions; unused ones are H or OH. Bridge positions count the residues as written; N and C are the ends. Square brackets hold non-standard residues; d marks the D form. Peptide text beside a SMILES is read from it. Adda = CO[C@@H](Cc1ccccc1)[C@@H](C)/C=C(C)/C=C/[C@H](N[*:1])[C@H](C)C(=O)[*:2]; dAsp(3S-Me) = C[C@H](C(=O)[*:3])[C@@H](N[*:1])C(=O)[*:2]; d(γGlu) = O=C(O)[C@@H](CCC(=O)[*:2])N[*:1]; NMeDha = C=C(NC)C(=O)O

Chain of PP1 (P62136 whole entry): as the sequence (P62139 whole entry) above
T1 sequence (P67775 whole entry): as the sequence (P67775 whole entry) above
T1 sequence (P30153 2-589, further chain): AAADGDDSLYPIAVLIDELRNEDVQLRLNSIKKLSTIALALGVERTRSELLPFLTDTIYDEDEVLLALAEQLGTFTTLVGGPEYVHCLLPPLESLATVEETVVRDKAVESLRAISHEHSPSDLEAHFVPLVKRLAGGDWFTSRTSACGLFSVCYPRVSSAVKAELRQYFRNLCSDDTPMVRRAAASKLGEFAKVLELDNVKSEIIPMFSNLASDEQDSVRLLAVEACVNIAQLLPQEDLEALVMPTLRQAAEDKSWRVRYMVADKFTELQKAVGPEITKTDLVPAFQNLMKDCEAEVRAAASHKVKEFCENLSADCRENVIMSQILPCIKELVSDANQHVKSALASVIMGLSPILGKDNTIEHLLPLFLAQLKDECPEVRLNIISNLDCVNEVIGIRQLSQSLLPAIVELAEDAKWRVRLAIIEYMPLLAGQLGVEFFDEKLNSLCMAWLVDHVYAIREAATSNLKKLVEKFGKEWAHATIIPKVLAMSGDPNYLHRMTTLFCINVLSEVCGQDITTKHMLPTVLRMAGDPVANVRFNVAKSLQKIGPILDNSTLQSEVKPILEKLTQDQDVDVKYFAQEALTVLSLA

Turning to `C=C1C(=O)N[C@H](C)C(=O)N[C@@H](CC(C)C)C(=O)N[C@@H](C(=O)O)[C@H](C)C(=O)N[C@@H](Cc2ccccc2)C(=O)N[C@@H](/C=C/C(C)=C/[C@H](C)[C@H](Cc2ccccc2)OC)[C@H](C)C(=O)N[C@@H](C(=O)O)CCC(=O)N1C` [Microcystin LF, microcystin LF] (F[Adda][d(γGlu)][NMeDha][dA]L[dAsp(3S-Me)]-OH; lactam N-7), the IC50 is 0.9 ± 0.9 nM in [1] (setting [12]) and more than 1000 nM in data set [2] (setting [13]). For the same compound, in data set [3], the “Effect on total phosphatase activity” value is “no discernable effect”.

As usually defined, the Ki is a dissociation constant, usually derived from enzyme kinetics or from competition with a known ligand. As for `C=C1C(=O)N[C@H](C)C(=O)N[C@@H](CC(C)C)C(=O)N[C@@H](C(=O)O)[C@H](C)C(=O)N[C@@H](CCCNC(=N)N)C(=O)N[C@@H](/C=C/C(C)=C/[C@H](C)[C@H](Cc2ccccc2)OC)[C@H](C)C(=O)N[C@@H](C(=O)O)CCC(=O)N1C` [Microcystin LR, microcystin LR] (R[Adda][d(γGlu)][NMeDha][dA]L[dAsp(3S-Me)]-OH; lactam N-7), in data set [4], the “Body weight day 0, daily cohort” value stood at 22.8±2.7 grams. Also, the “Body weight day 0, every other day cohort” value in data set [4] is listed as 21.6±0.8 grams. Moreover, the “Body weight day 18, daily cohort” value in data set [4] came out at 19.0±1.2 grams. Besides, the “Body weight day 18, every other day cohort” value in data set [4] came to 22.3±2.4 grams. For the same compound, the IC50 is 39 nM in data set [1] (setting [12]); approximately 5000 nM in data set [1] (read-out: Growth inhibition IC50 in presence of BSP, OATP1B3); more than 10000 nM in data set [2] (setting [13]); more than 10000 nM in [2] (setting [14]); 5 nM in data set [10] (setting [15]); approximately 5000 nM in [10] (read-out: Growth inhibition IC50 in presence of BSP, OATP1B1). Also, in [5], the “Clonogenic assay toxicity in vector alone cells” value is given as “no toxicity”. The results for the “Cell and nuclear morphology changes” value in [6] and in data set [9] were “no changes in cellular morphology” and “membrane blebbing”, respectively. Also, the figures for the Ki at PP1 and on PP2A (read-out: Reported Ki PP2A) were 0.06 to 6 nM and 0.01 to 2 nM, respectively. Also, in data set [7], the “Share of total dose accumulating in the liver” value was 70%. For the same compound, the “Average tumor volume, % of control” value in [8] is listed as 49 % of control. Also, the “Growth inhibition activity after 1 hour exposure” value in data set [10] is listed as “less active”. Further, the “Decrease of total phosphatase activity” value in data set [11] is “approximately 30%”.

In the case of `C=C1C(=O)N[C@H](C)C(=O)N[C@@H](CC(C)C)C(=O)N[C@@H](C(=O)O)[C@H](C)C(=O)N[C@@H](Cc2c[nH]c3ccccc23)C(=O)N[C@@H](/C=C/C(C)=C/[C@H](C)[C@H](Cc2ccccc2)OC)[C@H](C)C(=O)N[C@@H](C(=O)O)CCC(=O)N1C` [Microcystin LW, microcystin LW] (W[Adda][d(γGlu)][NMeDha][dA]L[dAsp(3S-Me)]-OH; lactam N-7), the figures for the IC50 in data set [1] (setting [12]) and in data set [2] (setting [13]) were 0.5 ± 0.4 nM and more than 1000 nM, respectively. Also, the “Effect on total phosphatase activity” value in data set [3] is listed as “no discernable effect”.

For the compound `C=C1C(=O)N[C@H](C)C(=O)N[C@@H](CCCNC(=N)N)C(=O)N[C@@H](C(=O)O)[C@H](C)C(=O)N[C@@H](CCCNC(=N)N)C(=O)N[C@@H](/C=C/C(C)=C/[C@H](C)[C@H](Cc2ccccc2)OC)[C@H](C)C(=O)N[C@@H](C(=O)O)CCC(=O)N1C` [Microcystin RR, microcystin RR] (R[Adda][d(γGlu)][NMeDha][dA]R[dAsp(3S-Me)]-OH; lactam N-7), the IC50 in data set [1] (read-out: Growth inhibition IC50 OATP1B3) is 580 ± 400 nM; in data set [2] (setting [13]) it was more than 10000 nM; in data set [2] (setting [14]), more than 10000 nM; in data set [10] (read-out: Growth inhibition IC50 OATP1B1), 3800 ± 2300 nM. Moreover, the “Decrease of total phosphatase activity” value in [3] is recorded as 90%.

Take `C=C1C(=O)N[C@H](C)C(=O)N[C@@H](Cc2ccc(O)cc2)C(=O)N[C@@H](C(=O)O)[C@H](C)C(=O)N[C@@H](CCCNC(=N)N)C(=O)N[C@@H](/C=C/C(C)=C/[C@H](C)[C@H](Cc2ccccc2)OC)[C@H](C)C(=O)N[C@@H](C(=O)O)CCC(=O)N1C` [Microcystin YR, microcystin YR] (R[Adda][d(γGlu)][NMeDha][dA]Y[dAsp(3S-Me)]-OH; lactam N-7): the figures for the IC50 in data set [1] (setting [12]), in data set [2] (setting [13]) and in data set [10] (setting [15]) were 45 ± 30 nM, more than 1000 nM and 90 ± 20 nM, respectively.

On to `C=C1[C@@H](O)[C@@H]2O[C@]3(CC[C@H](/C=C/[C@@H](C)[C@@H]4CC(C)=C[C@@]5(O[C@H](C[C@@](C)(O)C(=O)O)CC[C@H]5O)O4)O3)CC[C@H]2O[C@@H]1[C@@H](O)C[C@H](C)[C@H]1O[C@@]2(CCCCO2)CC[C@H]1C` [Okadaic acid], for which the IC50 with OATP1B1 is 2.2 ± 0.6 nM; in data set [2] (Homo sapiens, HeLa, 72 h exposure, SRB dye assay, mean±SD, read-out: Growth Inhibition pIRESneo2 IC50), 7.8 ± 1.5 nM; with OATP1B3, 3 ± 1.2 nM; at purified PP1, 90 ± 17 nM; on purified PP2A it was 0.4 ± 0.18 nM; at PP2A (literature (18), read-out: Reported IC50 PP2A) it was 15 to 70 nM.
